The record followed here is patent US10144715B2, “Piperazine derivatives as liver X receptor modulators” (priority 2014, dated 2018).

Each structure is given as a SMILES string. Like-named read-outs stand apart in the source and are kept apart here.

For test [1], the target named is Gal4 DNA binding domain fused to the LBD of LXRβ in HEK293 cells (Homo sapiens (Human), UniProt P55055). The test can be described thus: cell-based.
Test [2] deals with LXR α LBD protein (Homo sapiens (Human), UniProt Q13133). The test can be described thus: LXR α radioligand binding assay (SPA, competition with [3H]TO901317). As to conditions: read-out: LXRα Binding Ki.
In test [3] the target is LXR β LBD protein (Homo sapiens (Human), UniProt P55055). The test can be described thus: biochemical. The class given is binding.
The target of test [4] is Gal4 DNA binding domain fused to the LBD of LXRα in HEK293 cells (Homo sapiens (Human), UniProt Q13133). The test can be described thus: LXR luciferase transcriptional reporter gene assay, agonist mode, LXRα. The class given is cell-based. As to conditions: for EC50: read-out: Cell LXRα EC50. For orientation: In a reporter assay the amount or activity of a reporter protein is the signal.

[5] abbreviates: Biological Test Example 2, agonist mode.

Gal4 DNA binding domain fused to the LBD of LXRα in HEK293 cells, sequence (Q13133 209-447): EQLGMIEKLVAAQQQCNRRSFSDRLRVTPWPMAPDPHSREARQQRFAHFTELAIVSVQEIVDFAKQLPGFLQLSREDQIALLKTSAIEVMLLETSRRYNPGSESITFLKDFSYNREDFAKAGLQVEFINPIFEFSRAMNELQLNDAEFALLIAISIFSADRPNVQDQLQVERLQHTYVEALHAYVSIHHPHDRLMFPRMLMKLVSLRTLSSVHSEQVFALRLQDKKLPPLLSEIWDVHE
LXR α LBD protein, sequence (Q13133 209-447): as above
Gal4 DNA binding domain fused to the LBD of LXRβ in HEK293 cells, sequence (P55055 222-460 limits assumed): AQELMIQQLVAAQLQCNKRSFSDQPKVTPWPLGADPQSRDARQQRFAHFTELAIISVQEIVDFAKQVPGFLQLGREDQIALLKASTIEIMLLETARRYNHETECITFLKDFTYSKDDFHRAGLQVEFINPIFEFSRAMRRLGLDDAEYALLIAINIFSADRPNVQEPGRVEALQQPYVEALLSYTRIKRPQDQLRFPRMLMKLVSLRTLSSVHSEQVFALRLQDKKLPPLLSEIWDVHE
LXR β LBD protein, sequence (P55055 222-460 limits assumed): as above

Broadly, the EC50 is the concentration giving half of the maximal effect. As a reminder, the Ki is a measure of affinity in units of concentration, obtained from inhibition or displacement. Consider `CC(C)[C@H]1CN(c2ccc(CO)c(S(C)(=O)=O)c2)CCN1C[C@@H]1CC[C@H](C(F)(F)F)OC1` [Cpd No 49-4, (4-((S)-3-isopropyl-4-(((3S,6R)-6-(trifluoromethyl)tetrahydro-2H-pyran-3-yl)methyl)piperazin-1-yl)-2-(methylsulfonyl)phenyl)methanol], for which, in test [1], the “Cell LXRβ efficacy” value is reported as 20 (101) % and it took 20 nM to reach a half-maximal effect (EC50). Besides, in test [2], the Ki came out at 44 nM. Further, in test [3] (read-out: LXRβ Binding Ki), the Ki stood at 7 nM. Also, in test [4], the “Cell LXRα efficacy” value is given as 27 (80) % and the EC50 is 27 nM.
In the case of `CS(=O)(=O)c1cccc(N2CCN(C[C@H]3CC[C@@H](C(F)(F)F)OC3)[C@@H](c3ccc(F)cc3)C2)c1` (single isomer, unassigned) [49-9], the EC50 in test [1] amounted to 575 nM; in test [4] it was 1640 nM. For the same compound, the “Cell LXRβ efficacy” value in test [1] (setting [5]) is on record as 575 (23) %. Moreover, the Ki in test [2] worked out at 1210 nM; in test [3], 150 nM. Further, the “Cell LXRα efficacy” value in test [4] is reported as 1643 (32) %.
Turning to `COC(=O)c1cnc(N2CCN(c3ccc(F)c(S(C)(=O)=O)c3)C[C@H]2C(C)C)nc1` [7-14, methyl (R)-2-(4-(4-fluoro-3-(methylsulfonyl)phenyl)-2-isopropylpiperazin-1-yl)pyrimidine-5-carboxylate], the EC50 turned out to be 379 nM in test [1] and 7120 nM in test [4]. Moreover, in test [1] (agonist mode), the “Cell LXRβ efficacy” value is on record as 379 (17) %. For the same compound, the Ki was found to be 2870 nM in test [2] and 285 nM in test [3] (read-out: LXRβ Binding Ki). For the same compound, the “Cell LXRα efficacy” value in test [4] is on record as 7124 (30) %.
On to `CC(C)[C@@H]1CN(c2ccc(F)c(S(C)(=O)=O)c2)CCN1c1cncc(C(F)(F)F)c1` [Cpd No 20-1, (R)-4-(4-fluoro-3-(methylsulfonyl)phenyl)-2-isopropyl-1-(5-(trifluoromethyl)pyridin-3-yl)piperazine], for which the values for the EC50 in test [1] and in test [4] were 141 nM and 678 nM, respectively. Further, in test [1] (agonist mode), the “Cell LXRβ efficacy” value is 141 (75) %. For the same compound, the Ki in test [2] came to 166 nM; in test [3] (read-out: LXRβ Binding Ki), 24 nM. Besides, in test [4], the “Cell LXRα efficacy” value is 678 (90) %.
For the compound `Cc1nc(N2CCN(c3ccc(F)c(S(C)(=O)=O)c3)C[C@H]2C(C)C)ncc1Br` [7-20, (R)-5-bromo-2-(4-(4-fluoro-3-(methylsulfonyl)phenyl)-2-isopropylpiperazin-1-yl)-4-methylpyrimidine], the “Cell LXRβ efficacy” value in test [1] is on record as 142 (57) %. In addition, the figures for the EC50 in test [1] and in test [4] (agonist mode) were 142 nM and 787 nM, respectively. The Ki in test [2] came out at 101 nM; in test [3] (read-out: LXRβ Binding Ki), 8 nM. Further, in test [4], the “Cell LXRα efficacy” value is recorded as 787 (80) %.
Consider `CC(C)[C@@H]1CN(c2ccc(C#N)c(S(C)(=O)=O)c2)CCN1c1ncc([C@@H](C)O)c(C(F)(F)F)n1` (single isomer, unassigned) [12-4], for which the EC50 in test [1] came to 652 nM; in test [4] it was 4460 nM. The “Cell LXRβ efficacy” value in test [1] (agonist mode) is listed as 652 (50) %. Further, the results for the Ki in test [2] and in test [3] (read-out: LXRβ Binding Ki) were 1450 nM and 111 nM, respectively. Besides, the “Cell LXRα efficacy” value in test [4] was 4457 (58) %.
`CO[C@H]1CC[C@@H](CN2CCN(c3ccc(CO)c(S(C)(=O)=O)c3)C[C@@H]2C(C)C)CC1` (single isomer, unassigned) [Cpd No 51-7]: the EC50 in test [1] was 42 nM; in test [4], 154 nM. Moreover, the “Cell LXRβ efficacy” value in test [1] (setting [5]) was 42 (84) %. The Ki in test [2] was determined as 303 nM; in test [3] (read-out: LXRβ Binding Ki), 51 nM. The “Cell LXRα efficacy” value in test [4] is recorded as 154 (80) %.
As for `CCN(CCOC)C(=O)c1cnc(N2CCN(c3ccc(F)c(S(C)(=O)=O)c3)C[C@H]2C(C)C)nc1C(F)(F)F` [17-14, (R)-N-ethyl-2-(4-(4-fluoro-3-(methylsulfonyl)phenyl)-2-isopropylpiperazin-1-yl)-N-(2-methoxyethyl)-4-(trifluoromethyl)pyrimidine-5-carboxamide], the EC50 in test [1] and in test [4] (agonist mode) was over 20000 nM throughout. Further, the figures for the Ki in test [2] and in test [3] (read-out: LXRβ Binding Ki) were 915 nM and 113 nM, respectively.
For `CO[C@]1(C(F)(F)F)CC[C@@H](CN2CCN(c3ccc(CO)c(S(C)(=O)=O)c3)C[C@@H]2C(C)C)CC1` (single isomer, unassigned) [Cpd No 48-79], the EC50 in test [1] is 1 nM; in test [4] (setting [5]) it was 6 nM. In addition, the “Cell LXRβ efficacy” value in test [1] (setting [5]) was 1 (115) %. The Ki in test [2] is 5 nM; in test [3] (Biological Test Example 1, read-out: LXRβ Binding Ki), 2 nM. For the same compound, the “Cell LXRα efficacy” value in test [4] is given as 6 (58) %.
Turning to `CS(=O)(=O)c1cccc(N2CCN(CC3CCN(CC(F)(F)F)CC3)[C@@H](c3ccccc3Cl)C2)c1` (single isomer, unassigned) [48-55], in test [1], the “Cell LXRβ efficacy” value is listed as 547 (19) % and the EC50 amounted to 547 nM. Besides, the Ki in test [2] was 277 nM. Further, the Ki in test [3] (read-out: LXRβ Binding Ki) is 67 nM. Also, in test [4], the “Cell LXRα efficacy” value is on record as 2129 (42) % and the half-maximal effective concentration (EC50) came out at 2130 nM.
Regarding `CC(C)[C@@H]1CN(c2ccc(F)c(S(C)(=O)=O)c2)CCN1c1nc2ccccc2o1` [7-52, (R)-2-(4-(4-fluoro-3-(methylsulfonyl)phenyl)-2-isopropylpiperazin-1-yl)benzo[d]oxazole], in test [1], the “Cell LXRβ efficacy” value is 192 (48) % and the concentration giving a half-maximal response (EC50) came to 192 nM. The Ki in test [2] amounted to 365 nM. The Ki in test [3] (read-out: LXRβ Binding Ki) is 41 nM. Moreover, in test [4], the “Cell LXRα efficacy” value is recorded as 1018 (76) % and the EC50 was 1020 nM.
Consider `CC(C)[C@@H]1CN(c2ccc(F)c(S(C)(=O)=O)c2)CCN1c1nc2cnccc2s1` [7-58, (R)-2-(4-(4-fluoro-3-(methylsulfonyl)phenyl)-2-isopropylpiperazin-1-yl)thiazolo[4,5-c]pyridine], for which, in test [1], the “Cell LXRβ efficacy” value is reported as 1154 (31) % and the EC50 worked out at 1150 nM. The Ki in test [2] stood at 2960 nM. The Ki in test [3] (read-out: LXRβ Binding Ki) came to 509 nM. Also, in test [4], the “Cell LXRα efficacy” value is reported as 6486 (31) % and the EC50 came out at 6490 nM.
In the case of `Cc1cc(C#N)nc(N2CCN(c3ccc(F)c(S(C)(=O)=O)c3)C[C@H]2C(C)C)n1` [7-8, (R)-2-(4-(4-fluoro-3-(methylsulfonyl)phenyl)-2-isopropylpiperazin-1-yl)-6-methylpyrimidine-4-carbonitrile], the EC50 in test [1] stood at 1520 nM; in test [4] (agonist mode), 17300 nM. The “Cell LXRβ efficacy” value in test [1] (agonist mode) is on record as 1521 (21) %. The figures for the Ki in test [2] and in test [3] (read-out: LXRβ Binding Ki) were over 3330 nM and 1010 nM, respectively. For the same compound, the “Cell LXRα efficacy” value in test [4] is 17317 (26) %.
Turning to `CC(C)[C@@H]1CN(c2ccc(F)c(S(C)(=O)=O)c2)CCN1c1ncc(C(=O)N(C)CCO)c(C(F)(F)F)n1` [17-7, (R)-2-(4-(4-fluoro-3-(methylsulfonyl)phenyl)-2-isopropylpiperazin-1-yl)-N-(2-hydroxyethyl)-N-methyl-4-(trifluoromethyl)pyrimidine-5-carboxamide], the EC50 in test [1] and in test [4] was over 20000 nM in each case. Besides, the Ki in test [2] was over 3330 nM; in test [3], 507 nM.
In the case of `CC(C)[C@H]1CN(c2cccc(S(C)(=O)=O)c2)CCN1C[C@H]1CC[C@@H](C(F)(F)F)OC1` (single isomer, unassigned) [Cpd No 49-5], in test [1], the “Cell LXRβ efficacy” value is 266 (77) % and the EC50 was determined as 266 nM. For the same compound, the Ki in test [2] stood at 421 nM. Moreover, the affinity in test [3], expressed as Ki, was 70 nM. For the same compound, in test [4], the “Cell LXRα efficacy” value is given as 578 (64) % and the EC50 amounted to 578 nM.
